Results taken from patent publication US20080207522A1, “Antimicrobial Peptides” (priority 2004, published 2008).
Where “and” joins values, the source holds several entries; their conditions need not be identical. Equal entries are not always repeated. Where two headings read alike, the source gives them in different places. Ends that are not written are not given here.

Columns and labels:
[1] = system: Pseudomonas aeruginosa strain H1001; test: Assay for the cleaved (free, soluble) peptides from cellulose support, luminescence killing assay; assay type: cell-based; parameters: key: 1: Peptides showing stronger killing than Bac2A at a 4 to 8-fold higher dilution; Peptides showing stronger killing compared to that of Bac2A at a 4-fold higher dilution; 3: Peptides similar to Bac2A; 4: Peptides similar to Bac2A at the highest concentration but demonstrating weaker killing at a 2-fold dilution; 5: Peptides giving very weak or no killing at a 2-fold dilution; 6: Peptides with weak killing activity at the highest concentration
Outline: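 Cellulose-synthesized peptides (amidated C-terminus, two β-alanines) cleaved by ammonia, released from punched spots 30 min at 37 °C, then serially diluted. P. aeruginosa H1001 (constitutive fliC::luxCDABE) overnight culture diluted 1:500 in LB or 100 mM Tris pH 7.3/20 mM glucose. Killing followed as time-dependent luminescence loss at 37 °C.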

[2] = system: Pseudomonas aeruginosa strain H1001 fliC::luxCDABE; test: Luminescence-based assay for the non-cleaved (bound) peptides on cellulose membranes; assay type: cell-based
Outline: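 Peptides remained bound to cellulose spots, which were ethanol-washed and equilibrated in 100 mM Tris pH 7.3. Constitutively lux-expressing P. aeruginosa (OD600 0.35 culture diluted 1:25) added in 10 mM Tris-HCl pH 7.3, 20 mM glucose at 37° C. Luminescence (RLU) followed over 14 time points; peptides binned into six activity classes.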

Escherichia coli UB1005 = system: Escherichia coli UB1005
Outline: (§1)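 MICs were measured by modified broth microdilution in Mueller Hinton medium in polypropylene plates. Peptides were diluted in 0.01% acetic acid/0.2% BSA, and inoculum was 2-7×10^5 CFU/ml from overnight culture.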

[3] = system: Pseudomonas aeruginosa PAO1 strain H103
Outline: as §1

[4] = system: Salmonella enterica ssp. Typhimurium
Outline: as §1

[5] = system: Staphylococcus epidermidis
Outline: as §1

[6] = system: Staphylococcus aureus cells; test: Membrane depolarization with membrane potential-sensitive dye diSC35; assay type: cell-based; settings: 20 μg/ml of peptides, diSC35 release, FIG. 4
Experimental: FIG. 4 is a graphical representation showing the mechanism of action of peptides assessed by measuring the ability to depolarize Staphylococcus aureus cells using the membrane potential-sensitive dye diSC35. Either 20 μg/ml of peptides or, as a control, 29 μg/ml of gramicidin S (Gram S) were added. Lines are smoothed using a polynomial (to the 6th power) function.

Candida albicans = system: Candida albicans
Outline: as §1

[7] = system: Enterococcus faecalis ATCC29212
Outline: as §1

[8] = system: Staphylococcus aureus ATCC25923
Outline: as §1

[9] = system: THP-1 macrophage-like cells; settings: at 100 μg/ml
Experimental: THP1 cells were cultured in RPMI 1640 medium (supplemented with 10% (v/v) FCS, 1% L-glutamine, and 1 nM sodium pyruvate) in E-toxa-clean (Sigma-Aldrich, Oakville, Ontario, Canada)-washed, endotoxin-free bottle. THP1 cells were counted and 250 μl per well of 2-4×10^4 cells/ml were transferred into a 96 well tissue cultured treated polystyrene microtiterplate (Beckton Dickinson, Franklin Lakes, USA). In addition PMA was added (1.3 nM) and the cells were incubated for three days. After three days the medium were exchanged and Pseudomonas aeruginosa LPS and the peptides were added. The incubation time was four hours and the supernatant was frozen at −20° C. The cells were stained with Tryphan Blue for 2 minutes and washed with PBS two times. The viability of the cells was determined by counting the stained cells over the unstained.
Cytotoxicity was assessed using PMA-treated, human macrophage THP-1 cell line (FIG. 5).

## RLARIVVIRVAR-NH2 [Bac2A, reference compound]
[1]; Table 5, free peptides
  Soluble Class: 3
[1]; free (cleaved) peptides, killing relative to Bac2A
  Activity Class Soluble: 3
[2]; cellulose-bound peptide, 0 min, listed as Bac001
  Luminescence at the given time in minutes: 0: 4374 RLU and 4041 RLU and 4234 RLU and 4425 RLU and 4530 RLU
[2]; cellulose-bound peptide, 20 min, listed as Bac001
  Luminescence at the given time in minutes: 20: 6729 RLU and 6352 RLU and 6373 RLU and 6323 RLU and 6411 RLU
[2]; cellulose-bound peptide, 40 min, listed as Bac001
  Luminescence at the given time in minutes: 40: 2607 RLU and 2249 RLU and 1840 RLU and 2721 RLU
[2]; cellulose-bound peptide, 100 min, listed as Bac001
  Luminescence at the given time in minutes: 100: 48 RLU and 35 RLU and 50 RLU and 53 RLU and 57 RLU
[2]; uncleaved cellulose-bound peptides
  Activity Class bound: 3 (Peptides similar to Bac2A resulting in lux values of less than 500 after 240 min.)
[2]; uncleaved peptide spots re-used 10 times, 40 h exposure to bacteria per cycle
  inhibition of light production (killing) over 10 consecutive cycles: very similar inhibition of light production (killing) was observed
Escherichia coli UB1005; Table 4a, Mueller-Hinton media, average of three measurements
  MIC E. coli: 17 µg/mL
Escherichia coli UB1005; Table 6
  MIC E. coli: 17 µg/mL
[3]; P. aeruginosa, Table 5
  difference in MIC between high and low Mg2+ conditions: 4 fold
[3]; PAO1
  MIC P. aerug: 50 µg/mL
  MIC P. aeruginosa: 50 µg/mL
  MIC P. aeruginosa Muller Hinton Media: 54 µg/mL
  MIC P. aeruginosa With 10 μM Mg: 18 µg/mL
  MIC P. aeruginosa With 2 mM Mg: 73 µg/mL
[4]; ssp. Typhimurium
  MIC S. Typhim.: 34 µg/mL
  MIC S. typhimurium: 34 µg/mL
[5]
  MIC S. epi.: 4 µg/mL
  MIC S. epidermidis: 4 µg/mL
[6]
  ability to depolarize the membrane of S. aureus: able to depolarize the membrane of S. aureus very quickly

## RRAAVVLIVIRR-NH2 (C-terminus assumed) [Bac020]
Candida albicans
  MIC C. albicans: 11 µg/mL
[7]; ATCC29212
  MIC E. faecalis: 8 µg/mL
[3]; PAO1
  MIC P. aeruginosa: 7 µg/mL
  MIC P. aeruginosa Muller Hinton Media: 7 µg/mL
  MIC P. aeruginosa With 10 μM Mg: 2 µg/mL
  MIC P. aeruginosa With 2 mM Mg: 8 µg/mL
  MIC against P. aeruginosa: 7 µg/mL
[4]; ssp. Typhimurium
  MIC S. typhimurium: 18 µg/mL
[8]; ATCC25923
  MIC S. aureus: 5 µg/mL
[5]
  MIC S. epidermidis: 1.5 µg/mL
[9]
  cytotoxic effect against a human macrophage cell line: no cytotoxic effect

## Bac263: peptide of Table 6 (substitution peptides and truncation variants of Bac2A); sequence in Table 1 (RLAGIVVIRVAR)
Candida albicans; Table 6
  MIC C. albicans: n.s.
[7]; Table 6
  MIC E. faecalis: n.s.
Escherichia coli UB1005; Table 6
  MIC E. coli: n.s.
[3]; Table 6
  MIC P. aerug: n.s.
[4]; Table 6
  MIC S. Typhim.: n.s.
[8]; Table 6
  MIC S. aureus: n.s.
[5]; Table 6
  MIC S. epi.: n.s.
